Source: ChEMBL document CHEMBL5370538, “Discovery of novel 6-p-tolyl-3-(3,4,5-trimethoxybenzyl)-7H-[1,2,4]triazolo[3,4-b][1,3,4]thiadiazine derivative as a potent tubulin inhibitor with promising in vivo antitumor activity” (Eur J Med Chem, 2023)
The source made the active and inactive calls. The calls are words filed in the database; no cut-off is given here.

What was measured:
HT-29 = assay: Antiproliferative activity against human HT-29 cells assessed as cell growth inhibition incubated for 48 hrs by MTT assay; assay type: functional, cell-based; conditions: HT-29, 48 h
Tubulin (Homo sapiens) [1] = molecular target: T1, Tubulin (Homo sapiens) (UniProt P68371+Q9H4B7+P0DPH7+P68366+Q13509+Q71U36+P04350+Q3ZCM7+P07437+P68363+Q9BQE3+Q6PEY2+Q13885+Q9BVA1+Q9BUF5); assay: Inhibition of tubulin polymerization (unknown origin) at 10 uM measured for 20 mins in presence of GTP by spectrophotometry analysis; assay type: protein-complex assay
HeLa = assay: Antiproliferative activity against human HeLa cells assessed as cell growth inhibition incubated for 48 hrs by MTT assay; assay type: functional, cell-based
A549 = assay: Antiproliferative activity against human A549 cells assessed as cell growth inhibition incubated for 48 hrs by MTT assay; assay type: functional, cell-based; conditions: A549, 48 h
MDA-MB-231 = assay: Antiproliferative activity against human MDA-MB-231 cells assessed as cell growth inhibition incubated for 48 hrs by MTT assay; assay type: functional, cell-based; conditions: MDA-MB-231, 48 h
[2] = Antiproliferative activity against human HEK293 cells assessed as cell growth inhibition incubated for 48 hrs by MTT assay; assay type: toxicity, cell-based
Tubulin (Homo sapiens) [3] = molecular target: T1, Tubulin (Homo sapiens); assay: Inhibition of tubulin polymerization (unknown origin) at 10 uM measured for 20 mins in presence of GTP by spectrophotometry analysis relative to control; assay type: protein-complex assay

Compound | IC50 (HT-29) [µM] | other results
COc1cc(OCc2nnc3n2N=C(c2ccc(N)cc2)CS3)cc(OC)c1OC | > 50 | 
CC(=O)O[C@H]1C(=O)[C@@]2(C)[C@H]([C@H](OC(=O)c3ccccc3)[C@]3(O)C[C@H](OC(=O)[C@H](O)[C@@H](NC(=O)c4ccccc4)c4ccccc4)C(C)=C1C3(C)C)[C@]1(OC(C)=O)CO[C@@H]1C[C@@H]2O |  | inhibition (Tubulin (Homo sapiens) [1]): inactive
COc1ccc(C2=Nn3c(COc4cc(OC)c(OC)c(OC)c4)nnc3SC2)cc1[N+](=O)[O-] | > 50 | 
COc1ccc(Cc2nnc(SCC(=O)c3ccc(C)cc3)n2N)c(OC)c1OC | 0.62 | IC50 (HeLa): 9.02 µM; IC50 (A549): 11.8 µM; IC50 (MDA-MB-231): > 50 µM; IC50 at 48 h [2]: > 100 µM
COc1cc(Cc2nnc3n2N=C(c2ccccc2)CS3)cc(OC)c1OC | > 50 | 
COc1cc(Cc2nnc3n2N=C(c2ccc(Cl)cc2)CS3)cc(OC)c1OC | 1.02 | IC50 (HeLa): 1.33 µM; IC50 (A549): 5.77 µM; IC50 (MDA-MB-231): 4.63 µM; inhibition (Tubulin (Homo sapiens) [3]): 30%; IC50 at 48 h [2]: > 100 µM
COc1cc(OCc2nnc3n2N=C(c2ccc(C)cc2)CS3)cc(OC)c1OC | 0.46 | IC50 (HeLa): > 50 µM; IC50 (A549): 30.6 µM; IC50 (MDA-MB-231): 12.8 µM; inhibition (Tubulin (Homo sapiens) [3]): 11%; IC50 at 48 h [2]: > 100 µM
COc1ccc(/C=C\c2cc(OC)c(OC)c(OC)c2)cc1O [COMBRETASTATIN A4] | 1.18 | IC50 (HeLa): 0.043 µM; IC50 (MDA-MB-231): 0.077 µM
COc1ccc(C2=Nn3c(COc4cc(OC)c(OC)c(OC)c4)nnc3SC2)cc1OC(C)=O | 26.2 | 
COc1ccc(C2=Nn3c(Cc4cc(OC)c(OC)c(OC)c4)nnc3SC2)cc1[N+](=O)[O-] | 49.2 | 
COc1ccc(C2=Nn3c(COc4cc(OC)c(OC)c(OC)c4)nnc3SC2)cc1OC | > 50 | 
COc1ccc(C2=Nn3c(Cc4cc(OC)c(OC)c(OC)c4)nnc3SC2)cc1 | 42.8 | 
COc1cc(Cc2nnc3n2N=C(c2ccc(F)cc2)CS3)cc(OC)c1OC | > 50 | 
COc1cc(OCc2nnc3n2N=C(c2ccc(N(C)C)cc2)CS3)cc(OC)c1OC | 0.41 | IC50 (HeLa): 2.2 µM; IC50 (A549): > 50 µM; IC50 (MDA-MB-231): 9.73 µM; inhibition (Tubulin (Homo sapiens) [3]): 12%; IC50 at 48 h [2]: > 100 µM
COc1cc(OCc2nnc3n2N=C(c2ccc(C(F)(F)F)cc2)CS3)cc(OC)c1OC | > 50 | 
COc1cc(Cc2nnc3n2N=C(c2ccc([N+](=O)[O-])cc2)CS3)cc(OC)c1OC | > 50 | 
COc1cccc(C2=Nn3c(Cc4cc(OC)c(OC)c(OC)c4)nnc3SC2)c1 | 32 | 
COc1cc(Cc2nnc3n2N=C(c2ccc(-c4ccccc4)cc2)CS3)cc(OC)c1OC | > 50 | 
COc1ccc(C2=Nn3c(COc4cc(OC)c(OC)c(OC)c4)nnc3SC2)cc1N | 4.93 | 
COc1cc(Cc2nnc3n2N=C(c2ccc(N(C)C)cc2)CS3)cc(OC)c1OC | 35.2 | 
COc1ccc(C2=Nn3c(COc4cc(OC)c(OC)c(OC)c4)nnc3SC2)cc1F | > 50 | 
COc1cc(Cc2nnc3n2N=C(c2ccc(C(F)(F)F)cc2)CS3)cc(OC)c1OC | 5.03 | 
COc1ccc(C2=Nn3c(Cc4cc(OC)c(OC)c(OC)c4)nnc3SC2)cc1O | 9.69 | 
COc1cc(Cc2nnc3n2N=C(c2ccccc2F)CS3)cc(OC)c1OC | 44.6 | 
COc1cc(Cc2nnc3n2N=C(c2ccc(Br)cc2)CS3)cc(OC)c1OC | 43.6 | 
COc1cc(OCc2nnc3n2N=C(c2ccc(Cl)c(Cl)c2)CS3)cc(OC)c1OC | 48.1 | 
COc1ccc(C2=Nn3c(Cc4cc(OC)c(OC)c(OC)c4)nnc3SC2)cc1N | > 50 | 
COc1ccc(C2=Nn3c(COc4cc(OC)c(OC)c(OC)c4)nnc3SC2)cc1O | 36.4 | 
COc1cc(OCc2nnc3n2N=C(c2ccc(SC)cc2)CS3)cc(OC)c1OC | > 50 | 
COc1cc(Cc2nnc3n2N=C(c2cccs2)CS3)cc(OC)c1OC | > 50 | 
